Patent publication US20200016136A1 (VIIV HEALTHCARE UK (NO. 5) LIMITED, priority 2017, published 2020)

Tested on: NL-RLuc virus (recombinant NL4-3 HIV with Renilla Luciferase gene)
Assay: Inhibition of HIV replication (NL-RLuc virus in MT-2 cells, luciferase readout)
Type: cell-based, Human immunodeficiency virus (HIV)
Conditions: MT2, 120 h
Excerpt: Inhibition of HIV Replication:
A recombinant NL-RLuc proviral clone was constructed in which a section of the nef gene form NL4-3 was replaced with the Renilla Luciferase gene. This virus is fully infectious and can undergo multiple cycles of replication in cell culture. In addition, the luciferous reporter provides a simple and easy method for quantitating the extent of virus growth and consequently, the antiviral activity of test compounds. The plasmid pNLRLuc contains the proviral NL-Rluc DNA cloned into pUC18 at the PvuII site. The NL-RLuc virus was prepared by transfection of 293T cells with the plasmid pNLRLuc. Transfections were performed using the LipofectAMINE PLUS kit form Invitrogen (Carlsbad, Calif.) according to the manufacturer and the virus generated was titered in MT-2 cells. For susceptibility analyses, the titrated virus was used to infect MT-2 cells in the presence of compound, and after 5 days of incubation, cells were processed and quantitated for virus growth by the amount of expressed luciferase. Assay media was RPMI 1640 supplemented with 10% heat inactivated fetal bovine serum (FBS), 100 units/ml penicillin G/100 units/ml streptomycin, 10 mM HEPES buffer pH 7.55 and 2 mM L-glutamine. The results form at least 2 experiments were used to calculate the EC50 values. Luciferase was quantitated using the Dual Luciferase kit form Promega (Madison, Wis.). Susceptibility of viruses to compounds was determined by incubation in the presence of serial dilutions of the compound. The 50% effective concentration (EC50) was calculated by using the exponential form of the median effect equation where (Fa)=1/[1+(ED50/drug conc.)^m](Johnson V A, Byington R T. Infectivity Assay. In Techniques in HIV Research. ed. Aldovini A, Walker B D. 71-76. New York: Stockton Press. 1990).

| Compound | EC50 [nM] |
| --- | --- |
| Cc1nc(C)c([C@H](OC(C)(C)C)C(=O)O)c(N2CCC(C)(C)CC2)c1-c1ccc2c(c1)CCN(c1ccnc(N3CCOCC3)n1)C2 [Example 57, (S)-2-(tert-Butoxy)-2-(4-(4,4-dimethylpiperidin-1-yl)-2,6-dimethyl-5-(2-(2-morpholinopyrimidin-4-yl)-1,2,3,4-tetrahydroisoquinolin-6-yl)pyridin-3-yl)acetic Acid] | 0.5 |
| Cc1ccccc1-c1cccc(N2CCc3cc(-c4c(C)nc(C)c([C@H](OC(C)(C)C)C(=O)O)c4N4CCC(C)(C)CC4)ccc3C2)n1 [Example 88, (S)-2-(tert-Butoxy)-2-(4-(4,4-dimethylpiperidin-1-yl)-2,6-dimethyl-5-(2-(6-(o-tolyl)pyridin-2-yl)-1,2,3,4-tetrahydroisoquinolin-6-yl)pyridin-3-yl)acetic Acid] | 25 |
| Cc1nc(C)c([C@H](OC(C)(C)C)C(=O)O)c(N2CCC(C)(C)CC2)c1-c1ccc2c(c1)CCN(c1cc(C(=O)O)ncn1)C2 [Example 127, (S)-6-(6-(5-(tert-Butoxy(carboxy)methyl)-4-(4,4-dimethylpiperidin-1-yl)-2,6-dimethylpyridin-3-yl)-3,4-dihydroisoquinolin-2(1H)-yl)pyrimidine-4-carboxylic Acid] | 1280 |
| CCC(C)(C)O[C@H](C(=O)O)c1c(C)nc(C)c(-c2ccc3c(c2)CCN(c2ncnc4c2oc2ccccc24)C3)c1N1CCC(C)(C)CC1 [Example 141, (S)-2-(5-(2-(Benzofuro[3,2-d]pyrimidin-4-yl)-1,2,3,4-tetrahydroisoquinolin-6-yl)-4-(4,4-dimethylpiperidin-1-yl)-2,6-dimethylpyridin-3-yl)-2-(tert-pentyloxy)acetic Acid] | 2 |
| Cc1nc(C)c([C@H](OC(C)(C)C)C(=O)O)c(N2CCC(C)(C)CC2)c1-c1ccc2c(c1)CCN(Cc1ccccc1)C2 [Example 52, (2S)-2-[5-(2-Benzyl-1,2,3,4-tetrahydroisoquinolin-6-yl)-4-(4,4-dimethylpiperidin-1-yl)-2,6-dimethylpyridin-3-yl]-2-(tert-butoxy)acetic Acid] | 3 |
| Cc1nc(C)c([C@H](OC(C)(C)C)C(=O)O)c(N2CCC(C)(C)CC2)c1-c1ccc2c(c1)CCN(c1ccnc(N3C4COCC3COC4)n1)C2 [Example 34, (2S)-2-(tert-Butoxy)-2-[4-(4,4-dimethylpiperidin-1-yl)-5-[2-(2-{3,7-dioxa-9-azabicyclo[3.3.1]nonan-9-yl}pyrimidin-4-yl)-1,2,3,4-tetrahydroisoquinolin-6-yl]-2,6-dimethylpyridin-3-yl]acetic Acid] | 5 |
| Cc1nc(C)c([C@H](OC(C)(C)C)C(=O)O)c(N2CCC(C)(C)CC2)c1-c1ccc2c(c1)CCN(c1nccc(N3CCS(=O)(=O)CC3)n1)C2 [Example 46, (S)-2-(tert-Butoxy)-2-(4-(4,4-dimethylpiperidin-1-yl)-5-(2-(4-(1,1-dioxidothiomorpholino)pyrimidin-2-yl)-1,2,3,4-tetrahydroisoquinolin-6-yl)-2,6-dimethylpyridin-3-yl)acetic Acid] | 9 |
| Cc1nc(N2CCOCC2)nc(N2CCc3cc(-c4c(C)nc(C)c([C@H](OC(C)(C)C)C(=O)O)c4N4CCC(C)(C)CC4)ccc3C2)n1 [Example 56, (S)-2-(tert-Butoxy)-2-(4-(4,4-dimethylpiperidin-1-yl)-2,6-dimethyl-5-(2-(4-methyl-6-morpholino-1,3,5-triazin-2-yl)-1,2,3,4-tetrahydroisoquinolin-6-yl)pyridin-3-yl)acetic Acid] | 1 |
| Cc1nc(C)c([C@H](OC(C)(C)C)C(=O)O)c(N2CCC(C)(C)CC2)c1-c1ccc2c(c1)CCN(c1cc(N3CCC(CO)CC3)ncn1)C2 [Example 120, (S)-2-(tert-Butoxy)-2-(4-(4,4-dimethylpiperidin-1-yl)-5-(2-(6-(4-(hydroxymethyl)piperidin-1-yl)pyrimidin-4-yl)-1,2,3,4-tetrahydroisoquinolin-6-yl)-2,6-dimethylpyridin-3-yl)acetic Acid] | 14 |
| Cc1nc(C)c([C@H](OC(C)(C)C)C(=O)O)c(N2CCC(C)(C)CC2)c1-c1ccc2c(c1)CCN(c1ncnc(N3C[C@@H](C)O[C@@H](C)C3)n1)C2 [Example 68, (S)-2-(tert-Butoxy)-2-(5-(2-(4-((2R,6S)-2,6-dimethylmorpholino)-1,3,5-triazin-2-yl)-1,2,3,4-tetrahydroisoquinolin-6-yl)-4-(4,4-dimethylpiperidin-1-yl)-2,6-dimethylpyridin-3-yl)acetic Acid] | 1 |
| Cc1cccc(Cl)c1CN1CCc2cc(-c3c(C(=O)N4CCC(C)(C)CC4)nc(C)c([C@H](OC(C)(C)C)C(=O)O)c3N3CCC(C)(C)CC3)ccc2C1 [Example 118, (S)-2-(tert-Butoxy)-2-(5-(2-(2-chloro-6-methylbenzyl)-1,2,3,4-tetrahydroisoquinolin-6-yl)-4-(4,4-dimethylpiperidin-1-yl)-6-(4,4-dimethylpiperidine-1-carbonyl)-2-methylpyridin-3-yl)acetic Acid] | 1 |
| CC1(C)CCN(c2c(-c3ccc4c(c3)CCN(c3ncnc5c3oc3ncccc35)C4)c(CN3CCC4(CCC4)CC3)nc(Cl)c2[C@H](OC(C)(C)C)C(=O)O)CC1 [Example 152, (S)-2-(6-((7-Azaspiro[3.5]nonan-7-yl)methyl)-2-chloro-4-(4,4-dimethylpiperidin-1-yl)-5-(2-(pyrido[3′,2′:4,5]furo[3,2-d]pyrimidin-4-yl)-1,2,3,4-tetrahydroisoquinolin-6-yl)pyridin-3-yl)-2-(tert-butoxy)acetic Acid] | 0.1 |
| Cc1nc(C)c([C@H](OC(C)(C)C)C(=O)O)c(N2CCC(C)(C)CC2)c1-c1ccc2c(c1)CCN(c1cc(N3CCC(CCO)CC3)ncn1)C2 [Example 121, (S)-2-(tert-Butoxy)-2-(4-(4,4-dimethylpiperidin-1-yl)-5-(2-(6-(4-(2-hydroxyethyl)piperidin-1-yl)pyrimidin-4-yl)-1,2,3,4-tetrahydroisoquinolin-6-yl)-2,6-dimethylpyridin-3-yl)acetic Acid] | 9 |
| Cc1nc(C)c([C@H](OC(C)(C)C)C(=O)O)c(N2CCC(C)(C)CC2)c1-c1ccc2c(c1)CCN(c1cc(N3CCC(C)CC3)ncn1)C2 [Example 138, (S)-2-(tert-Butoxy)-2-(4-(4,4-dimethylpiperidin-1-yl)-2,6-dimethyl-5-(2-(6-(4-methylpiperidin-1-yl)pyrimidin-4-yl)-1,2,3,4-tetrahydroisoquinolin-6-yl)pyridin-3-yl)acetic Acid] | 2 |
| CCOc1nc(N2CCOCC2)nc(N2CCc3cc(-c4c(C)nc(C)c([C@H](OC(C)(C)C)C(=O)O)c4N4CCC(C)(C)CC4)ccc3C2)n1 [Example 59, (S)-2-(tert-Butoxy)-2-(4-(4,4-dimethylpiperidin-1-yl)-5-(2-(4-ethoxy-6-morpholino-1,3,5-triazin-2-yl)-1,2,3,4-tetrahydroisoquinolin-6-yl)-2,6-dimethylpyridin-3-yl)acetic Acid] | 3 |
| Cc1nc(C)c([C@H](OC(C)(C)C)C(=O)O)c(N2CCC(C)(C)CC2)c1-c1ccc2c(c1)CCN(c1cc(N3CCCC(C)(C)C3)ncn1)C2 [Example 139, (S)-2-(tert-Butoxy)-2-(4-(4,4-dimethylpiperidin-1-yl)-5-(2-(6-(3,3-dimethylpiperidin-1-yl)pyrimidin-4-yl)-1,2,3,4-tetrahydroisoquinolin-6-yl)-2,6-dimethylpyridin-3-yl)acetic Acid] | 4 |
